# Experiments:
# IL-6 [1] = test: IL-6 production in TNFα-induced NL20 cells (ELISA); format: cell-based, human
# Description: (§1) Am J Physiol Lung Cell Mol Physiol 2007; 292:[…]-352; and Donnarumma G, et al. Anti-inflammatory effects of moxifloxacin and human beta-defensin 2 association in human lung epithelial cell line (A549) stimulated with lipopolysaccharide. Peptides 2007; 28:2286-2292, incorporated by reference in their entireties). […] The effect of antibiotics on cytokine levels was assessed by ELISA assay. […] The day after seeding, cells received normal growth medium without serum for an additional 24 h. […] IL-6 and IL-8 production in NL20 monolayers was induced by treatment with 10 ng/ml of TNFα. […] After 48 h, cell medium was collected, clarified and the amount of IL-6 and IL-8 released into the medium was quantified using QuantiGlo chemiluminescent ELISA kits (R&D Systems, Minneapolis, Minn.). To test the effect of antibiotics on IL-6 and IL-8 secretion, antibiotics were added to culture media along with LPS or TNF-α and processed as described above.
# [2] = tested on: IL-8, IL-6, ERK1/2, MK, and NFKB; details: human lung epithelia cells; antibiotic concentrations less than 50 μg/ml; cited from earlier work
# IL-6 [3] = test: IL-6 production in LPS-induced HBE135 cells (ELISA); format: cell-based, human; details: for decrease in IL-6 levels: Example 5, 5 μg/ml LPS
# Description: as §1
# HBE135 cells = test: Cytotoxicity on HBE135 cells, Alamar Blue assay; format: cell-based, human; details: for changes in cell viability in cytotoxicity assays: Example 5, LPS-induced HBE135 cells, 10-300 μg/ml, data not shown
# Description: (§2) After 48 hour incubation with the antibiotic, cells were incubated in fresh growth media containing 5% Alamar Blue dye and fluorescence was recorded at 0 h and 4 h to assess antibiotic cytotoxicity.
# IL-6 [4] = test: IL-6 levels in BAL of LPS-injected mice after aerosol treatment; format: in vivo; details: LPS i.p., aerosol 60 mg/kg, BAL at 6 hours
# Description: (§3) Mice (n=4) were injected with 50 μg LPS by an intraperitoneal route. […] Mice were sacrificed 6 hours after aerosolized treatment, and bronchoalveolar (BAL) fluid was collected by lavage with 1 ml saline. IL-6 and MIP-2 (murine homolog of human IL-8) levels were determined by ELISA.
# IL-8 [5] = test: IL-8 production in TNFα-induced NL20 cells (ELISA); format: cell-based, human; details: for levels of IL-8 decreased: p<0.005
# Description: as §1
# MIP-2 = MIP-2 levels in BAL of LPS-injected mice after aerosol treatment; format: in vivo; details: 50 μg LPS i.p., aerosol 60 mg/kg 30 min after LPS, BAL 6 hours after treatment
# Description: as §3
# IL-8 [6] = test: IL-8 production in LPS-induced HBE135 cells (ELISA); format: cell-based, human
# Description: as §1
# NL20 cells = tested on: NL20 cells
# Description: as §2
# IL-1β = IL-1β production in LPS-stimulated THP-1 cells (ELISA); format: cell-based, human; details: 24 h
# Description: The human monocyte cell line, THP-1 is an established in vitro model of human monocytic cells and is capable to secrete a greater variety of cytokines compared to NL20 and HBE135 cells. THP-1 cells were cultured in RPMI-1640 medium with 10% FBS, 0.05 mM 2-mecraptoethanol. THP-1 cells were seeded on 24-well tissue culture plates at 1×10^6 cells/ml in growth media without serum. The following day, 100 ng/ml LPS from P. aeruginosa and antibiotics were added and cells incubated for 24 hours before media collection to assess cytokine production. Quantification of IL-6, IL-8, IL-1β and TNFα production was performed as described above for NL20 cells.
# IL-8 mRNA = IL-8 mRNA expression in TNFα-induced NL20 cells (real-time PCR); format: cell-based, human; details: NL20 monolayers, 10 ng/ml TNFα, 24 h; 100 μg/ml and 300 μg/ml
# Description: IL-8 mRNA expression in NL20 monolayers was induced by treatment with 10 ng/ml TNFα. Levofloxacin was added simultaneously with TNFα. After 24 h incubation, the cell monolayer was washed with PBS, total cellular RNA was prepared and reverse transcription was performed using a human IL-8 specific primer and the “Cells-to-cDNA” kit from Ambion (Austin, Tex.). cDNA was subjected to real-time PCR analysis using PowerSYBR Green PCR master mix and a GeneAmp 5700 Instrument (Applied Biosystems; Warrington, UK). All data were normalized to the housekeeping gene β-actin. […] This increase correlates with the increased levels of IL-8 protein induced by TNFα.
# [7] = Example 5, NL20 cells, TNFα, 10 μg/ml to 100 μg/ml
# [8] = Example 5, NL20 cells, TNFα, 300 μg/ml
# [9] = summary of Example 5, cultured human lung epithelial cell lines (line not given)
# [10] = Example 3, NL20 cells induced with TNFα, 300 μg/ml
# [11] = summary of Example 5, cultured human lung epithelial cell lines (line not given), 300 μg/ml, p<0.05
structure (smiles),measurement,setting,value
O=C(O)c1cn(C2CC2)c2cc(N3CCNCC3)c(F)cc2c1=O [ciprofloxacin],change in IL-6 levels,"IL-6 [1]; Example 1, NL20 cells, 10 ng/ml TNFα, 48 h, 10 μg/ml and 30 μg/ml antibiotic",No significant change
same,IL-6 levels,"IL-6 [1]; Example 1, NL20 cells, TNFα, 30 μg/ml",increase
Cc1c(F)c(N2CCNC(C)C2)cc2c1c(=O)c(C(=O)O)cn2C1CC1 (centres unmarked) [grepafloxacin],"secretion of pro-inflammatory factor such as IL-8, IL-6, ERK1/2, MK, and NFKB",[2],can inhibit
NC[C@H]1O[C@H](O[C@H]2[C@H](O)[C@@H](O[C@H]3O[C@H](CO)[C@@H](O)[C@H](N)[C@H]3O)[C@H](N)C[C@@H]2N)[C@H](N)C[C@@H]1O [tobramycin],levels of IL-6,"IL-6 [3]; Example 5, LPS, 10 μg/ml, 30 μg/ml, or 100 μg/ml",did not affect
same,increased levels of IL-6,"IL-6 [3]; Example 5, LPS, 300 μg/ml",30%
same,production of IL-6,IL-6 [1]; [7],did not significantly affect
same,IL-6 production,IL-6 [1]; [8],increase
same,increased IL-6 levels,IL-6 [1]; [9],50%
same,changes in cell viability in cytotoxicity assays,HBE135 cells,No significant changes
same,IL-6 levels compared to the saline control,IL-6 [4],increase
same,production of IL-8,IL-8 [5]; [7],did not significantly affect
same,effect on IL-8,IL-8 [5]; [9],no effect
same,mean MIP-2 levels,MIP-2,502 pg/mL
C[C@H]1COc2c(N3CCN(C)CC3)c(F)cc3c(=O)c(C(=O)O)cn1c23 [levofloxacin],levels of IL-8 decreased,"IL-8 [6]; Example 5, 100 μg/ml",30%
same,levels of IL-8 decreased,"IL-8 [6]; Example 5, 300 μg/ml",20%
same,decrease in IL-6 levels,IL-6 [3]; 100 μg/ml,45%
same,decrease in IL-6 levels,IL-6 [3]; 300 μg/ml,40%
same,reduction in IL-6 levels,IL-6 [1]; [10],~10 fold
same,reduction in IL-6 levels,"IL-6 [1]; Example 5, NL20 cells, 10 ng/ml TNFα, 100 μg/ml, p<0.005",2 fold
same,reduction in IL-6 levels,"IL-6 [1]; Example 5, NL20 cells, 10 ng/ml TNFα, 300 μg/ml, p<0.005",4 fold
same,reduced levels of IL-6,IL-6 [1]; [11],4 fold
same,changes in cell viability in cytotoxicity assays,HBE135 cells,No significant changes
same,cytotoxicity compared to moxifloxacin and ciprofloxacin,"HBE135 cells; HBE135 cells, 48 hour incubation, higher concentrations",less cytotoxic
same,IL-6 levels lower than in the saline control,IL-6 [4]; p<0.05,more than 2 fold
same,reduction in IL-8 levels,IL-8 [5]; [10],~5 fold
same,levels of IL-8 decreased,"IL-8 [5]; Example 5, NL20 cells, TNFα, 100 μg/ml",50%
same,levels of IL-8 decreased,IL-8 [5]; [8],60%
same,reduced levels of IL-8,IL-8 [5]; [11],2 fold
same,cytotoxicity compared to moxifloxacin and ciprofloxacin,NL20 cells,less cytotoxic
same,decrease in IL-1I3 levels,IL-1β; 100 μg/ml,40%
same,decrease in IL-1I3 levels,IL-1β; 300 μg/ml,70%
same,level of IL-8 mRNA expression,IL-8 mRNA,no significant effect
